Measurements taken from patent publication US20110230481A2, “DERIVATIVES OF TETRABROMOBENZIMIDAZOLE, A PROCESS FOR THE PREPARATION THEREOF, A PHARMACEUTICAL COMPOSITION COMPRISING THE SAME, A METHOD OF USING THE SAME, A METHOD FOR MODULATING OR REGULATING SERINE/THREONINE KINASES, AND SERINE/THREONINE KINASES MODULATING AGENT” (SELVITA S.A., priority 2009, published 2011).

What was measured:
Assay in all cases: KINOMEscan Max
Assay type in all cases: binding
[1] = target: ABL1(T315I)-phosphorylated (Homo sapiens, UniProt P00519, T315I)
Description: (§1) Kinase panel profiling was performed at Ambit Kinomescan (http://www.ambitbio.com/technology/) using the “KINOMEscan™ Max” assay platform, a high-throughput method for screening small molecule compounds against large numbers of human kinases. KINOMEscan™ is based on a competition binding assay that quantitatively measures the ability of a compound to compete with an immobilized, active-site directed ligand. The assay is performed by combining three components: DNA-tagged kinase; immobilized ligand; and a test compound. The ability of the test compound to compete with the immobilized ligand is measured via quantitative PCR of the DNA tag. For a description of Ambit's assay protocol, see Fabian et al. A small molecule-kinase interaction map for clinical kinase inhibitors. Nat. Biotechnol. 23, 329-336 (2005).

BRSK1 = target: T1, BRSK1 (Homo sapiens, UniProt Q8TDC3)
T1 construct: DNA tag (qPCR label); purchased Ambit Kinomescan (contract screening)
Description: as §1

CAMK1 = target: T2, CAMK1 (Homo sapiens, UniProt Q14012)
T2 construct: purchased Ambit Kinomescan (contract screening)
Description: as §1

CAMK4 = target: T3, CAMK4 (Homo sapiens, UniProt Q16566)
T3 construct: DNA tag (qPCR label); purchased Ambit Kinomescan (contract screening)
Description: as §1

CDKL3 = target: T4, CDKL3 (Homo sapiens, UniProt Q8IVW4)
T4 construct: purchased Ambit Kinomescan (contract screening)
Description: as §1

CSNK1G1 = target: T5, CSNK1G1 (Homo sapiens, UniProt Q9HCP0); settings: 1 μM
T5 construct: purchased Ambit (KINOMEscan Max panel service)
Description: as §1

CTK = CTK (Homo sapiens, UniProt P42679)
Description: as §1

DLK = target: T6, DLK (Homo sapiens, UniProt Q12852); settings: 1 μM
T6 construct: DNA tag (qPCR read-out)
T6 sequence (Q12852 whole entry): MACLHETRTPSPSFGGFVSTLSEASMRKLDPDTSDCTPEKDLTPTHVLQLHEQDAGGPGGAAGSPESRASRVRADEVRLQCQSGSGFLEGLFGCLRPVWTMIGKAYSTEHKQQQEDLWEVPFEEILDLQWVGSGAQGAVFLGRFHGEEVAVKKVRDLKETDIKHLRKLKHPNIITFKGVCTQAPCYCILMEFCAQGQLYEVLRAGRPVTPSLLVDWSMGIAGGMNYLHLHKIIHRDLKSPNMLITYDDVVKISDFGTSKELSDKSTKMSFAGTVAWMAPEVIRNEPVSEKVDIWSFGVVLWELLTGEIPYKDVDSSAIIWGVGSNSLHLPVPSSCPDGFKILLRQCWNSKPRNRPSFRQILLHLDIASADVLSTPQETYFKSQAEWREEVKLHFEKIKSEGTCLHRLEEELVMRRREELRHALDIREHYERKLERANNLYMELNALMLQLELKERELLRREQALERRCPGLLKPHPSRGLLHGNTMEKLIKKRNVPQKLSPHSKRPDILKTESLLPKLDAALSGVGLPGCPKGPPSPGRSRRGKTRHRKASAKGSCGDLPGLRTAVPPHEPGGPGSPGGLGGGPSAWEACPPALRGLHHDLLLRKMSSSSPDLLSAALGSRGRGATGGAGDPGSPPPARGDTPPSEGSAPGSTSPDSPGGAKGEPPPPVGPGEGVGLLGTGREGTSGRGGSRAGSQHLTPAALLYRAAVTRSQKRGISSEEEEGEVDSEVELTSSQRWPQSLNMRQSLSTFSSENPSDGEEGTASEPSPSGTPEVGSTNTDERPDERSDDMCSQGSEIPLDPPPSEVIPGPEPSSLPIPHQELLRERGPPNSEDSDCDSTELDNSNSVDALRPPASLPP
Description: as §1

DYRK1A = target: T7, DYRK1A (Homo sapiens, UniProt Q13627)
T7 construct: DNA tag (qPCR read-out); purchased Ambit Kinomescan
Description: as §1

EPHA5 = target: T8, EPHA5 (Homo sapiens, UniProt P54756); settings: 1 μM
T8 construct: purchased Ambit (KINOMEscan Max panel service)
Description: as §1

FGFR2 = FGFR2 (Homo sapiens, UniProt P21802)
Description: as §1

FGFR3 = target: T9, FGFR3 (Homo sapiens, UniProt P22607)
T9 construct: purchased Ambit (KINOMEscan Max service)
Description: as §1

FRK = target: T10, FRK (Homo sapiens, UniProt P42685)
T10 construct: purchased Ambit Kinomescan (contract panel, KINOMEscan Max)
Description: as §1

IRAK4 = target: T11, IRAK4 (Homo sapiens, UniProt Q9NWZ3); settings: 1 μM
T11 construct: purchased Ambit Kinomescan (contract panel)
T11 sequence (Q9NWZ3 whole entry): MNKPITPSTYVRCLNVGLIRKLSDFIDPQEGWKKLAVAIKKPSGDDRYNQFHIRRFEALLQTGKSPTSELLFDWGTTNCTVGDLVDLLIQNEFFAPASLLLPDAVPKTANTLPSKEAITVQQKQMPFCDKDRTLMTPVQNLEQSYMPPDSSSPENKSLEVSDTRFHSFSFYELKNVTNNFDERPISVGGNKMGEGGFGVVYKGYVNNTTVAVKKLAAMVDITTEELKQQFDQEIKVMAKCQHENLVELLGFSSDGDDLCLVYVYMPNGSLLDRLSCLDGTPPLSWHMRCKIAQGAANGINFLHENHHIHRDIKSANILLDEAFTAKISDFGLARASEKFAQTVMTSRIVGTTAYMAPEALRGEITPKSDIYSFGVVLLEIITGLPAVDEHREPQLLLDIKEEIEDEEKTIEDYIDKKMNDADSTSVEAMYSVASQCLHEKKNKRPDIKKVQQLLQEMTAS
Description: as §1

KIT(A829P) = target: T12, KIT(A829P) (Homo sapiens, UniProt P10721, A829P)
T12 construct: purchased Ambit Kinomescan (contract panel)
Description: as §1

LCK = target: T13, LCK (Homo sapiens, UniProt P06239)
T13 construct: purchased Ambit Kinomescan (contract panel)
Description: as §1

MAPKAPK5 = target: T14, MAPKAPK5 (Homo sapiens, UniProt Q8IW41)
T14 construct: purchased Ambit Kinomescan (contract panel)
Description: as §1

MEK3 = MEK3 (Homo sapiens, UniProt P46734)
Chain of MEK3 (P46734 whole entry): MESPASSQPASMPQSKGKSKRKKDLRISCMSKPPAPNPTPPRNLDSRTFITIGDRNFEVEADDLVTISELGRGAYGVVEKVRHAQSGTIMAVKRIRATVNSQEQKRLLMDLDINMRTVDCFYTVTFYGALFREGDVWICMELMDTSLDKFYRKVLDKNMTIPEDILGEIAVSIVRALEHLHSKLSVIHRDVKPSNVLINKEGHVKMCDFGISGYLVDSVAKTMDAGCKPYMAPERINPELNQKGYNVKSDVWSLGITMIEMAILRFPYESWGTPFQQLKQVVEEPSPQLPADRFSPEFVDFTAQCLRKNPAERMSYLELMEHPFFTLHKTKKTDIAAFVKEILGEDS
Description: as §1

MST2 = MST2 (Homo sapiens, UniProt Q13188)
Description: as §1

MST3 = MST3 (Homo sapiens, UniProt Q9Y6E0); settings: 1 μM
Chain of MST3 (Q9Y6E0 whole entry): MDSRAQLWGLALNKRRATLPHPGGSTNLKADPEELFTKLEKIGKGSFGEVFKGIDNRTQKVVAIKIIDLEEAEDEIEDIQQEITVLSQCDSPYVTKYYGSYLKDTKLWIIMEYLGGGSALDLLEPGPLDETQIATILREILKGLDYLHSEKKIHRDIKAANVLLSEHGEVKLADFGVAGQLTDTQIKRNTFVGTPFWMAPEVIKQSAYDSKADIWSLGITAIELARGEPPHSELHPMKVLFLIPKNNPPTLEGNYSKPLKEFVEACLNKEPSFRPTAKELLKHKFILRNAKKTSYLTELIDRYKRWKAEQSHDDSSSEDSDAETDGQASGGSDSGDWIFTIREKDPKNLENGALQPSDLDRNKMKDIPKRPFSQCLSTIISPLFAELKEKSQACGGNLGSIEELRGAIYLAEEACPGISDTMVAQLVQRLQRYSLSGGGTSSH
Description: as §1

MYO3B = MYO3B (Homo sapiens, UniProt Q8WXR4)
Description: as §1

PCTK2 = PCTK2 (Homo sapiens, UniProt Q00537)
Chain of PCTK2 (Q00537 whole entry): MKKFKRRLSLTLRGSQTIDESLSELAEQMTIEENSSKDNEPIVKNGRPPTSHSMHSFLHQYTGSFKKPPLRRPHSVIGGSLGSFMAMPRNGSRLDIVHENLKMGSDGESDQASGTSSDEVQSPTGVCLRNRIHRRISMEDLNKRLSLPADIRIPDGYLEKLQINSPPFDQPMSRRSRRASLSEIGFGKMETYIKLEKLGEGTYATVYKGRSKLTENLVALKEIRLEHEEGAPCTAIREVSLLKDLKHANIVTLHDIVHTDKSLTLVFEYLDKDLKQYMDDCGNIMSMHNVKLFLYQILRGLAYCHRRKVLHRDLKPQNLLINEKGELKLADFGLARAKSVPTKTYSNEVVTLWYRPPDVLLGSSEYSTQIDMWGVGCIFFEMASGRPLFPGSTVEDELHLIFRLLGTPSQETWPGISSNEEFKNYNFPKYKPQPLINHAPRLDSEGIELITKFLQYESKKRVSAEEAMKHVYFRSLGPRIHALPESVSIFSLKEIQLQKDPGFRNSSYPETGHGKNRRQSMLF
Description: as §1

PFTK1 = target: T15, PFTK1 (Homo sapiens, UniProt O94921); settings: 1 μM
T15 construct: DNA tag (qPCR read-out)
Description: as §1

PIK3CA = target: T16, PIK3CA (Homo sapiens, UniProt P42336)
T16 construct: DNA tag (qPCR read-out)
Description: as §1

PIK3CB = target: T17, PIK3CB (Homo sapiens, UniProt P42338)
T17 construct: DNA tag (qPCR read-out)
Description: as §1

PKMYT1 = PKMYT1 (Homo sapiens, UniProt Q99640); settings: 1 μM
Description: as §1

PKNB(M.tuberculosis) = PKNB(M.tuberculosis) (Mycobacterium tuberculosis, UniProt P9WI81)
Description: as §1

RIPK1 = target: T18, RIPK1 (Homo sapiens, UniProt Q13546)
T18 construct: DNA tag (qPCR read-out)
Description: as §1

[2] = target: T19, RSK4(Kin.Dom.2-C-terminal) (Homo sapiens, UniProt Q9UK32); settings: 1 μM
T19 construct: RSK4(Kin.Dom.2-C-terminal); DNA tag (qPCR read-out)
T19 sequence (Q9UK32 426-683 limits assumed): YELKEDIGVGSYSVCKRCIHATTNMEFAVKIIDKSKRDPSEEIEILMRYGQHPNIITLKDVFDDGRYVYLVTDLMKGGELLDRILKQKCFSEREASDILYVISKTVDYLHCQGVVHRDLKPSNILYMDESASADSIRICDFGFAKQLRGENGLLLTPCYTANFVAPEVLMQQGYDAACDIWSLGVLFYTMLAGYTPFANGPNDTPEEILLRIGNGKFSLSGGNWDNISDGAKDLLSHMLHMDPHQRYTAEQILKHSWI
Description: as §1

SRPK1 = target: T20, SRPK1 (Homo sapiens, UniProt Q96SB4)
T20 construct: purchased Ambit (KINOMEscan Max service)
T20 sequence (Q96SB4 whole entry): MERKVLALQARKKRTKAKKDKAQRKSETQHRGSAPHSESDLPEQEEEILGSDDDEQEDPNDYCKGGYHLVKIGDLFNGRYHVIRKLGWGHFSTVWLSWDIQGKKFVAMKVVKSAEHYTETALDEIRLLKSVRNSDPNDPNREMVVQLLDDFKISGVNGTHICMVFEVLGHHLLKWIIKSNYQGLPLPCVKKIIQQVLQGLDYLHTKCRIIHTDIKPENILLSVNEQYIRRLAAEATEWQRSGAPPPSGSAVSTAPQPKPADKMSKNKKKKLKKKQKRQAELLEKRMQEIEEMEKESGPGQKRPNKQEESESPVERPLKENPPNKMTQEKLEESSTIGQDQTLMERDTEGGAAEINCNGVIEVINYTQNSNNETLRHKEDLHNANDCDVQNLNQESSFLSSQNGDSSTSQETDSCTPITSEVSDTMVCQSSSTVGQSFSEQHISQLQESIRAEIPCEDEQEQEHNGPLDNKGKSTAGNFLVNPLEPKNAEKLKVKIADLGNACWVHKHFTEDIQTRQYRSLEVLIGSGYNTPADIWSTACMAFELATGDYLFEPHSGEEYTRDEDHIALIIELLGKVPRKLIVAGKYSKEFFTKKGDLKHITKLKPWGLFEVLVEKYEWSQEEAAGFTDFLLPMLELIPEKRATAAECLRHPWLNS
Description: as §1

SRPK2 = target: T21, SRPK2 (Homo sapiens, UniProt P78362)
T21 construct: DNA tag (qPCR read-out)
Description: as §1

TEC = target: T22, TEC (Homo sapiens, UniProt P42680)
T22 construct: purchased Ambit Kinomescan (contract screening service)
T22 sequence (P42680 whole entry): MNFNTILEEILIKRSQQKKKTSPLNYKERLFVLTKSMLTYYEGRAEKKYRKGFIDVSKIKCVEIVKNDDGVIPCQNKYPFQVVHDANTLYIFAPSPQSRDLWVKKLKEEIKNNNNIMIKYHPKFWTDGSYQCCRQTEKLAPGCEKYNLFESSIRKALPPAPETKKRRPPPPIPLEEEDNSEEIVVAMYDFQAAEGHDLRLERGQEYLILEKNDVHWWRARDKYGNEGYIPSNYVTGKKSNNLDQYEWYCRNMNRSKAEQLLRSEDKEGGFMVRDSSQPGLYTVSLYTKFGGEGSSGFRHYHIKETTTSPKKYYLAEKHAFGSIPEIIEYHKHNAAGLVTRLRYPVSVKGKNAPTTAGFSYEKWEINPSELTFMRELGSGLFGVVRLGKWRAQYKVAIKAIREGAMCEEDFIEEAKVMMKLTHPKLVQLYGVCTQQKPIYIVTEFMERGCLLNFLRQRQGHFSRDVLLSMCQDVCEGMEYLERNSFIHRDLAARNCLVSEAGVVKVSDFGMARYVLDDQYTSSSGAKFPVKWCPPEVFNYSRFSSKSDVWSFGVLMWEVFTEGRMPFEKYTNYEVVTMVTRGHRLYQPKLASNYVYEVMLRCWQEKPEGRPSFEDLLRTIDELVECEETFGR
Description: as §1

TSSK1B = target: T23, TSSK1B (Homo sapiens, UniProt Q9BXA7)
T23 construct: purchased Ambit Kinomescan (contract screening service)
T23 sequence (Q9BXA7 whole entry): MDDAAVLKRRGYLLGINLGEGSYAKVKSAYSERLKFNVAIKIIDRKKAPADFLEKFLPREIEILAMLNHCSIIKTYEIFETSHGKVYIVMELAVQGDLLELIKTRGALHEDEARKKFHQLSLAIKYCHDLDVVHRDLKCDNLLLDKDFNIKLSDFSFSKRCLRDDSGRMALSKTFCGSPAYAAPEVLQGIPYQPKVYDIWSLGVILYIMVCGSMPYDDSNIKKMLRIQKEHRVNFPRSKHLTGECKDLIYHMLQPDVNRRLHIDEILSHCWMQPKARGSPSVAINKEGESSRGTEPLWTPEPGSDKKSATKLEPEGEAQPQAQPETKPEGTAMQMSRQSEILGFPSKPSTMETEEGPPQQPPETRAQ
Description: as §1

YANK1 = target: T24, YANK1 (Homo sapiens, UniProt Q8WU08)
T24 construct: purchased Ambit Kinomescan (contract screening service)
T24 sequence (Q8WU08 whole entry): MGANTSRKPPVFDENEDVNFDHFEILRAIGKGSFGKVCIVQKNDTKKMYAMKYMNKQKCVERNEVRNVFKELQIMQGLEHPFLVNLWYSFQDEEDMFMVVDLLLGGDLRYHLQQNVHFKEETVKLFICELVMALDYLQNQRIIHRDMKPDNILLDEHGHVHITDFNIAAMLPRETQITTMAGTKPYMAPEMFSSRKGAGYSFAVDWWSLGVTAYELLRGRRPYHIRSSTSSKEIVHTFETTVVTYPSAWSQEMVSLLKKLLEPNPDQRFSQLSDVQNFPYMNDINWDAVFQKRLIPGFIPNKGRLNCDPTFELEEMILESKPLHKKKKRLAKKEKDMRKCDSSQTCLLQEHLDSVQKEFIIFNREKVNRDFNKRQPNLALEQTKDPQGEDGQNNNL
Description: as §1

## NCCCNc1nc2c(Br)c(Br)c(Br)c(Br)c2[nH]1 [Compound 11, N-(3-aminopropyl)-4,5,6,7-tetrabromo-1H-benzo[d]imidazol-2-amine]
[1]
  remaining binding at 1 µM: 100%
BRSK1
  remaining binding at 1 µM: 100%
CAMK1
  remaining binding at 1 µM: 98%
CAMK4
  remaining binding at 1 µM: 100%
CDKL3
  remaining binding at 1 µM: 98%
CSNK1G1
  % binding: 100%
CTK
  remaining binding at 1 µM: 74%
DLK
  % binding: 87%
DYRK1A
  remaining binding at 1 µM: 2.6%
EPHA5
  % binding: 100%
FGFR2
  remaining binding at 1 µM: 77%
FGFR3
  remaining binding at 1 µM: 84%
FRK
  remaining binding at 1 µM: 100%
IRAK4
  % binding: 100%
KIT(A829P)
  remaining binding at 1 µM: 100%
LCK
  remaining binding at 1 µM: 100%
MAPKAPK5
  remaining binding at 1 µM: 100%
MEK3
  remaining binding at 1 µM: 78%
MST2
  remaining binding at 1 µM: 100%
MST3
  % binding: 98%
MYO3B
  remaining binding at 1 µM: 100%
PCTK2
  remaining binding at 1 µM: 100%
PFTK1
  % binding: 100%
PIK3CA
  remaining binding at 1 µM: 100%
PIK3CB
  remaining binding at 1 µM: 100%
PKMYT1
  % binding: 99%
PKNB(M.tuberculosis)
  remaining binding at 1 µM: 91%
RIPK1
  remaining binding at 1 µM: 100%
[2]
  % binding: 100%
SRPK1
  remaining binding at 1 µM: 67%
SRPK2
  remaining binding at 1 µM: 100%
TEC
  remaining binding at 1 µM: 100%
TSSK1B
  remaining binding at 1 µM: 100%
YANK1
  remaining binding at 1 µM: 100%
